Measured values from patent US9649305B2, “PFKFB3 inhibitor and methods of use as an anti-cancer therapeutic” (ADVANCED CANCER THERAPEUTICS, LLC, priority 2012, dated 2017).
Like-named read-outs stand apart in the source and are kept apart here.

Key:
[1] = IV pharmacokinetics in rats, 40 mg/kg; type: in vivo; conditions: IV 40 mg/kg; for Plasma AUC0→t: Captisol solution
Description: (§1) In another embodiment, a cyclodextrin based solution was used to investigate the PK profile of PFK-158, 2HCl at a higher concentration in both rats and dogs.
(§2) The solution was prepared with 40% w/v Captisol® in water for injection, 5% Mannitol, and a pH 2.3 citrate buffer leading to a 8 mg/ml concentration of PFK-158, 2HCl. This solution was safely administered IV to rats and dogs at a dose of 40 mg/kg. Blood samples were taken over a 24 hour period and analyzed. […] Pharmacokinetic parameters were calculated in the same way in dogs: plasma AUC0→24 values of 16,100±700 and 15,900±2600 hr·ng/mL, and plasma C5 min values of 6960±1180 and 6900±900 ng/mL were obtained for male and female dogs, respectively.

[2] = IV pharmacokinetics in dogs, 40 mg/kg; type: in vivo; conditions: IV 40 mg/kg
Description: as §1, §2

PFKFB3 [3] = target: T1, PFKFB3 (Homo sapiens, UniProt Q16875); assay: Enzymatic activity of recombinant PFKFB3, ADP-Glo assay; type: biochemical
T1 sequence (Q16875 whole entry): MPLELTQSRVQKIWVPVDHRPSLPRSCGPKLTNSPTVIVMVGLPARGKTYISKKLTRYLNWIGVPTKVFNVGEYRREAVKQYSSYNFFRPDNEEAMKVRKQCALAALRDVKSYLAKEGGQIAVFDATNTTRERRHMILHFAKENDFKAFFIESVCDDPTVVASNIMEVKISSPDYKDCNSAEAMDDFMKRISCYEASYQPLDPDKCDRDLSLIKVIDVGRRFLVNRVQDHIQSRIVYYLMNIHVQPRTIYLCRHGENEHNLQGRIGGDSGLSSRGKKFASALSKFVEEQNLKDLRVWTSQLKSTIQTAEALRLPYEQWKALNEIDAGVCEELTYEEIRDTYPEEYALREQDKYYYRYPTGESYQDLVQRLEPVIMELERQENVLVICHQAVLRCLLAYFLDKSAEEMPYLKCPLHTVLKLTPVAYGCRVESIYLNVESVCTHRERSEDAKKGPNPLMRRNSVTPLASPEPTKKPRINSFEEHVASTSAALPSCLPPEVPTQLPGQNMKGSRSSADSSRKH
Description: The inducible bifunctional 6-Phosphofructo-2-kinase/fructose2,6-biphosphatase enzyme (PFKFB3) was expressed and purified in order to determine if PFK-158 inhibits enzymatic activity. PFKFB3 was prepared by expression in E. coli and purified by GST column and column chromatography. […] The recombinant protein was pure and active as determined by the results of a commercially available kinase activity assay (ADP-Glo™, Promega, Madison, Wis.).

Jurkat cells = assay: Inhibition of 14C-2-deoxyglucose uptake; type: cell-based; conditions: Homo sapiens, read-out: IC50, Inhibition of 2 deoxyglucose uptake
Description: Inhibition of PFKFB3 results in inhibiting glycolysis. Several feedback or feedforward activation and inhibition mechanisms exist so that, by a feedback mechanism, inhibiting the activity of PFKFB3 might inhibit glucose uptake by cells. An assay was developed to determine if there was inhibition of glucose uptake following exposure PFK-158. Briefly, Jurkat cells were plated at 10^5 cells/mL in RPMI 1640 supplemented with 10% fetal bovine serum and 50 μg/mL gentamicin sulfate. Cells were immediately treated with vehicle or 0.5 μmol/L of PFK-158 for 3 hours and subsequently placed in glucose-free RPMI 1640 for 30 min. ^14C-2-deoxyglucose (0.25 μCi/mL; Perkin Elmer) was added for an additional 60 min and cells were then washed three times with ice-cold RPMI 1640 containing no glucose. Cell lysates were collected in 500 μL of 0.1% SDS and scintillation counts (counts/min) were measured on 400 μL of lysate. Counts were normalized to protein concentration.

[4] = tested on: Jurkat cell line (leukemia cell line); assay: Toxicity / cell growth of Jurkat cell line; type: cell-based; conditions: Homo sapiens, Jurkat, read-out: IC50, toxicity of Jurkat cell line (leukemia cell line)
Description: The ability of PFK-158 to kill or inhibit the proliferation of cancer cells was measured using either the MTT assay, the alamarBlue® assay (Invitrogen, Grand Island, N.Y.), or the CellTiter Glo™ assay (Promega, Madison, Wis.) using 48 or 72 hours exposure.
Cells of the desired tumor cell line were plated at 2×10^5 cells/ml in 96 well plates. Twice the indicated concentrations of the compounds of the invention were added to cells the following day in an equal volume of media. 72 hours later, cells were lysed and subjected to ATP determination using the CellTiter-Glo™ Luminescent Cell Viability Assay kit. Experiments were performed in triplicate. When using the MTT assay or the alamarBlue® assay, the experimental conditions are essentially similar; at the end of the incubation period, 20 microliters of the MTT solution is added per well and the samples are incubated for an additional four hours, rinsed, and absorbance at 570 nm was measured. Results for the inhibition of cell proliferation are reported as the IC50 (the concentration resulting in 50% inhibition of proliferation of the cell population) and are listed in Table 5 below. Cell lines include lung, colon, prostate, breast, ovarian, and pancreatic cancer lines.

[5] = IV pharmacokinetics in mice; type: in vivo, Balbc mice; conditions: mouse, plasma, 5 mg/kg, IV dosing; for AUC(0-inf): read-out: AUC0-inf; for Cmax: read-out: Cmax
Description: The pharmacokinetic (PK) parameters for PFK-158 were determined in mice following IV (intravenous) administration in mice and rats. A typical study design includes six animals (male or female) 7 to 8 weeks old.
Mouse pharmacokinetic properties using a dose of 5 mg/kg were determined after IV administration using a 10% DMSO, 10% PEG-200, 10% Solutol:ethanol (1:1) and 70% D5W solution or any other pharmaceutically acceptable parenteral formulation. Blood samples were collected at different intervals. Plasma samples were extracted and analyzed using an LC-MS/MS method. Similar protocols were used for the rat PK study (Sprague Dawley rats; 30 mg/kg), although the formulation for rat PK studies differed (30% Captisol, pH 3.0 solution). Time vs. plasma concentration plots were prepared as shown in FIGS. 4 (BalbC mice) and 5 (SD rats), respectively. Pharmacokinetic parameters were calculated and are provided below in Table 7.

PFKFB3 [6] = target: T1, PFKFB3; assay: Enzymatic activity of PFKFB3 in cells (F2,6BP levels, Van Schaftingen method); type: cell-based; parameters: endogenous in cells; host or cells: Jurkat cells; conditions: read-out: IC50, Enzymatic activity of PFKFB3 in cells
Description: Inhibition of PFKFB3 can also be measured in cells by measuring fructose-2,6-biphosphate levels according to the Van Schaftingen method (Eur. J. of Biochem, 129: 191 (1982)). This method enables measurement of the inhibition in a cellular environment, a model more relevant than the pure recombinant protein. Briefly, Jurkat cells were plated at 1×10^5 cells/mL and incubated with different concentrations of PFK-158 for 3 hours. Samples were collected and cells were lysed. Extracts were characterized as described in previous reports and normalized to protein concentration.

[7] = In vitro stability in human liver microsomes; type: in vitro ADME
[8] = Maximum tolerated dose study; type: in vivo; conditions: C57/B16, mouse, in vivo; 3 days on/3 days off schedule; read-out: MTD
Description: Several maximum tolerated dose studies and toxicology studies were performed and the results indicated PFK-158 is safer than PFK-015. Studies were performed in C57/B16 mice and SD rats.

[9] = Repeat-dose toxicology study in SD rats; type: in vivo
Description: Toxicology studies were performed in SD rats comparing PFK-158 and PFK-015 using a repeat dosing schedule. The studies were performed at dose levels ranging from 5 to 30 mg/kg and animals were monitored for weight loss, behavior, clinical signs, and clinical chemistries. At the end of the study, gross pathology and histopathology were performed.

[10] = tested on: lung cancer model, pancreatic cancer model, colon cancer model; assay: Tumor growth inhibition in mouse cancer models; conditions: mouse cancer models, during treatment
Description: Studies determining efficacy of PFK-158 at inhibiting tumor growth in mouse cancer models were performed. These studies were carried out with PFK-158 alone and in combination with compounds currently used in the treatment of cancer patients. Studies were performed in a lung cancer model, a pancreatic cancer model, and in a colon cancer model.
Efficacy of PFK-158 was studied in vivo in tumor models. Several tumor models were used in these studies (the Lewis lung carcinoma, or LLC model, the CT-26 colon carcinoma tumor model, or the BXPC3 pancreatic cancer model). The experimental protocol for the LLC study is described below. Subsequent to subcutaneous inoculation of tumor cells, tumors started to develop and once tumors reached the desired volume of 100-125 mm^3 on average, treatment was initiated. Tumor volume was monitored in both groups and the average for both the control and treatment groups was measured three times a week, as well as body weights.
Briefly, normal female C57BL/6 mice at 7-8 weeks of age were used for the study. Mice were housed in microisolator housing, with food and water provided as libitum, and quarantined for 4 days prior to the initiation of the study. LLC cells were maintained in a monolayer culture in DMEM medium supplemented with 10% heat inactivated fetal calf serum, 100 U/ml penicillin and 100 μg/ml streptomycin, and L-glutamine (2 mM) at 37° C. in an atmosphere of 5% CO2 in air. The tumor cells were routinely sub-cultured twice a week. The cells growing in an exponential phase were harvested and counted for tumor inoculation. Each mouse was inoculated subcutaneously at the right flank with the LLC tumor cells (3×10^5) in 0.1 ml of PBS for tumor development. When athymic nude mice were used, as for the BxPC3 model, then the strain of mice is slightly different. Furthermore, the use of Matrigel supports tumor development, meaning that cells are suspended in 100 μl of a mixture of medium/Matrigel (1:1) and are then subcutaneously implanted in the right flank region. Animals were monitored for tumor growth daily after cell implantation. When tumor volumes reached approximately 100-125 mm^3, mice were randomized into groups of 8 mice each using only mice having tumor volumes closest to the mean value. Tumor volumes were measured using the formula V=L×W×H×π/6, where L and W represent the longer and shorter diameters of the tumor and H represents the height of the tumor. Treatment began following randomization. PFK-158 was administered IP at a dose of 60 mg/kg on days 1, 3, 5, 7, 9, 11, and 13.
Similar protocols were used for the other studies using different models; differences included the use of Balbc/nude mice; administering larger number of cancer cells; and use of Matrigel.

[11] = Table 8, read-out: IC50, Enzymatic activity of PFKFB3, ADP-Glo Assay

Row | Structure (SMILES) | IC50 (PFKFB3 [3]; [11]) [nM] | IC50 (Jurkat cells; Jurkat, Table 8) [nM] | clearance ([5]; Table 9, BalbC mice) [mL/min/kg] | half-life ([5]; Table 9, BalbC mice) [h] | AUC(0-inf) ([5]; Table 9, BalbC mice) [ng·h/mL] | Cmax ([5]; Table 9, BalbC mice) [ng/mL] | IC50 (PFKFB3 [6]; Table 8) [nM] | IC50 ([4]; Table 8) [nM] | also measured
1 | Cl.Cl.O=C(/C=C/c1ccc2ccc(C(F)(F)F)cc2n1)c1ccncc1 [PFK-158, 2HCl] | – | – | – | – | – | – | – | – | plasma Cmax ([1]; female rats): 39,500±10,000 ng/mL; Plasma AUC0→t ([1]; female rats): 27,700±5800 hr·ng/mL; plasma Cmax ([1]; male rats): 51,400±6300 ng/mL; Plasma AUC0→t ([1]; male rats): 37,600±2800 hr·ng/mL; plasma AUC0→24 ([2]; female dogs): 15,900±2600 hr·ng/mL; plasma C5 min ([2]; female dogs): 6900 ± 900 ng/mL; plasma AUC0→24 ([2]; male dogs): 16,100±700 hr·ng/mL; plasma C5 min ([2]; male dogs): 6960 ± 1180 ng/mL
2 | COc1ccc2nc(/C=C/C(=O)c3ccnc(OC)c3)ccc2c1 [PFK-144, 1-(2-methoxy-pyridin-4-yl)-3-(6-methoxy-quinolin-2-yl)-propenone] | 654 ± 94 | 3100 ± 500 | 120 | 2.8 | 696 | 1500 | 10700 ± 300 | 1700 ± 300 | –
3 | O=C(/C=C/c1ccc2cccc(C(F)(F)F)c2n1)c1ccncc1 [PFK-153, 1-Pyridin-4-yl-3-(8-trifluoromethyl-quinolin-2-yl)-propenone] | 173 ± 23 | 1200 ± 600 | 327 | 3.8 | 225 | 397 | 6000 ± 600 | 900 ± 100 | –
4 | O=C(/C=C/c1ccc2ccccc2n1)c1ccncc1 [PFK-015] | – | – | – | – | – | – | – | – | IC50 (PFKFB3 [3]; Table 1, read-out: IC50, Enzymatic activity of PFKFB3, ADP Glo Assay): 318 ± 19 nM; IC50 (Jurkat cells; Table 1, Jurkat cells): 1200 ± 100 nM; IC50 ([4]; Table 1): 800 ± 100 nM; clearance ([5]; Table 2, Balbc mice): 46 mL/min/kg; half-life ([5]; Table 2, Balbc mice): 5 h; AUC(0-inf) ([5]; Table 2, Balbc mice): 1800 ng·h/mL; Cmax ([5]; Table 2, Balbc mice): 3050 ng/mL; Percent metabolized after 1 hr [7]: 67%; MTD [8]: 30 mg/kg; MTD ([9]; rat, in vivo, repeat dosing schedule): 12 mg/kg; Adverse observations in toxicology study ([9]; repeat dosing, PFK-158 5 to 30 mg/kg, PFK-015 12 and 25 mg/kg): adverse observations at both dose levels; body weight loss [10]: higher than 15%; IC50 (PFKFB3 [6]; Table 1, F2,6BP levels, Jurkat cells): 4700 ± 1600 nM

Further compounds by falling IC50 (Jurkat cells; Jurkat, Table 8), results first:

Row | IC50 (PFKFB3 [3]; [11]) [nM] | IC50 (Jurkat cells; Jurkat, Table 8) [nM] | clearance ([5]; Table 9, BalbC mice) [mL/min/kg] | half-life ([5]; Table 9, BalbC mice) [h] | AUC(0-inf) ([5]; Table 9, BalbC mice) [ng·h/mL] | Cmax ([5]; Table 9, BalbC mice) [ng/mL] | IC50 (PFKFB3 [6]; Table 8) [nM] | Structure (SMILES) | IC50 ([4]; Table 8) [nM] | also measured
5 | 802 ± 177 | 3800 ± 800 | 1330 | 2.5 | 63 | 40 | 15600 ± 1400 | O=C(/C=C/c1ccc2cc(OCCN3CCCCC3)ccc2n1)c1ccncc1 [PFK-150, 3-(6-(2-piperidin-1-yl-ethoxy)-quinolin-2-yl)-1-pyridin-4-yl-propenone] | 2500 ± 400 | –
6 | – | 2200 ± 600 | 75 | 6.1 | 1100 | 672 | 11300 ± 600 | Cc1ccc2ccc(/C=C/C(=O)c3ccncc3)nc2c1 [PFK-154, 3-(7-Methyl-quinolin-2-yl)-1-pyridin-4-yl-propenone] | 1300 ± 100 | –
7 | 431 ± 34 | 2200 ± 300 | 154 | 0.7 | 541 | 991 | 7400 ± 1800 | COc1ccc2nc(/C=C/C(=O)c3ccncc3)ccc2c1 [PFK-138, 3-(6-methoxy-quinolin-2-yl)-1-pyridin-4yl-propenone] | 1200 ± 200 | –
